Target: Bcl-2-like protein 1 (Homo sapiens, UniProt Q07817)
Test: Fluorescence Polarization Assay
Conditions: pH 8; 22 °C
Procedure: In the fluorescence polarization assay, the Bcl-XL protein is incubated with a fluorescein-tagged Bak-BH3 peptide. The Bcl-XL:Bak-BH3 peptide complex is then titrated with the test compounds, and the displacement of the Bak-BH3 peptide is measured as a function of decreasing polarized fluorescence. The fluorescence polarization values were determined using a Tecan GeniosPro plate reader using the excitation/emission wavelengths 485/535 nm. The binding affinities are reported as the inhibitory concentration of the titrant required to displace 50% of the Bak-BH3 peptide (IC50).

Chain of Bcl-2-like protein 1 (Q07817 whole entry): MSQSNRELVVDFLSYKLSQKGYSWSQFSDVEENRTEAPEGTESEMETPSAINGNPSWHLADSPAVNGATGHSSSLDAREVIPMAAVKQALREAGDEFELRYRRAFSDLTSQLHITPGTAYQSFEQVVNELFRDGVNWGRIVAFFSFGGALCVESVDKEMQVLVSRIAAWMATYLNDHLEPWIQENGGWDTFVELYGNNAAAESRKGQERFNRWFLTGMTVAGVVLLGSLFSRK

| IC50 | Structure (SMILES) |
| --- | --- |
| 19 µM | C[n+]1cc2c3c(ccc2c2ccc4cc5c(cc4c21)OCO5)OCO3 |
| > 100 µM | COc1ccc2c(c[n+](C)c3ccc(CO)cc23)c1OC [2-(hydroxymethyl)-7,8-dimethoxy-5-methylphenanthridin-5-ium chloride] |
| 3 µM | C[n+]1cc2c3c(ccc2c2cc(CCO)ccc21)OCO3 [4-(2-hydroxyethyl)-8-methyl-12,14-dioxa-8-azatetracyclo[8.7.0.0^{2,7}.0^{11,15}]heptadeca-1(10),2(7),3,5,8,11(15),16-heptaen-8-ium chloride] |
| 6 µM | COCCc1ccc2c(c1)c1ccc3c(c1c[n+]2C)OCO3 [4-(2-methoxyethyl)-8-methyl-12,14-dioxa-8-azatetracyclo[8.7.0.0^{2,7}.0^{11,15}]heptadeca-1(10),2(7),3,5,8,11(15),16-heptaen-8-ium chloride] |
| 11 µM | C[n+]1cc2c3c(ccc2c2cc(CO)ccc21)OCO3 [4-(hydroxymethyl)-8-methyl-12,14-dioxa-8-azatetracyclo[8.7.0.0^{2,7}.0^{11,15}]heptadeca-1(10),2(7),3,5,8,11(15),16-heptaen-8-ium chloride] |
| 11 µM | COCc1ccc2c(c1)c1ccc3c(c1c[n+]2C)OCO3 [4-(methoxymethyl)-8-methyl-12,14-dioxa-8-azatetracyclo[8.7.0.0^{2,7}.0^{11,15}]heptadeca-1(10),2(7),3,5,8,11(15),16-heptaen-8-ium chloride] |
| 22 µM | Cn1cc2c(=O)c(O)ccc-2c2cc(CCO)ccc21 [7,8-dihydroxy-2-(2-hydroxyethyl)-5-methylphenanthridin-5-ium chloride] |
| 20 µM | Cn1cc2c(=O)c(O)ccc-2c2cc(CO)ccc21 [7,8-dihydroxy-2-(hydroxymethyl)-5-methylphenanthridin-5-ium chloride] |
| 18 µM | Cn1cc2c(=O)c(O)ccc-2c2ccccc21 [7,8-dihydroxy-5-methylphenanthridin-5-ium chloride] |
| > 100 µM | COc1ccc2c(c[n+](C)c3ccccc23)c1OC [7,8-dimethoxy-5-methylphenanthridin-5-ium iodide] |
| > 100 µM | COc1ccc2c(c[n+]([O-])c3ccccc23)c1OC [7,8-dimethoxy-5-oxidophenanthridin-5-ium] |
| > 100 µM | C[n+]1cc2c3c(ccc2c2ccccc21)OC(C)(C)O3 [8,13,13-trimethyl-12,14-dioxa-8-azatetracyclo[8.7.0.0^{2,7}.0^{11,15}]heptadeca-1(10),2(7),3,5,8,11(15),16-heptaen-8-ium iodide] |
| 12 µM | C[n+]1cc2c3c(ccc2c2ccccc21)OCO3 [8-methyl-12,14-dioxa-8-azatetracyclo[8.7.0.0^{2,7}.0^{11,15}]heptadeca-1(10),2(7),3,5,8,11(15),16-heptaen-8-ium iodide] |
| > 100 µM | [O-][n+]1cc2c3c(ccc2c2ccccc21)OCO3 [8-oxido-12,14-dioxa-8-azatetracyclo[8.7.0.0^{2,7}.0^{11,15}]heptadeca-1(10),2(7),3,5,8,11(15),16-heptaen-8-ium] |
| > 100 µM | CC1(C)Oc2ccc3c(c[n+]([O-])c4ccccc34)c2O1 [13,13-dimethyl-8-oxido-12,14-dioxa-8-azatetracyclo[8.7.0.0^{2,7}.0^{11,15}]heptadeca-1(10),2(7),3,5,8,11(15),16-heptaen-8-ium] |

| Structure (SMILES) | IC50 |
| --- | --- |
| COc1ccc2c(c[n+](C)c3c4cc5c(cc4ccc23)OCO5)c1OC | 100 µM |

— BindingDB's records for doi:10.1021/jm8005433 (A* Star, 2008)
